Measured values from patent publication EP1914304A1 (priority 1998, dated 1999).
Several values for one entry are separate records, joined by “and”; a condition that tells them apart may be missing. Identical values can stand only once.

Columns and labels:
[1] = biological target: HSV-1 thymidine kinase mutant TKI 208 (Leu-170 to Val), SEQ ID 23 (codons 165-175) (Human herpesvirus 1, UniProt P06478, L170V); assay type: biochemical, Herpes Simplex Virus Type 1; conditions: Table I; purified enzyme, 34°C, 10 minutes
Experimental: (§1) Purification of wild-type and mutant TKs was performed by affinity chromatography on CH-Sepharose 4B (Pharmacia) coupled to p-aminophenylthymidine 3'-phosphate. Briefly, crude bacterial extract was passed three times through a 7-mL bed-volume affinity column. The column was then washed sequentially using 30 mL each of buffer A [0.1 M Tris HCl, pH 7.5/5 mM dithiothreitol (DTT)/10% glycerol], buffer B (0.1M Tris-HCl, pH 7.5/0.5 M KCl/5 mM DTT/10% glycerol), and buffer A. TK was eluted using a 60-mL linear gradient of 0-600 µM dT in buffer C (0.3 M Tris HCl, pH 7.4/50 mM KCl/10% glycerol). Active fractions were pooled and dialyzed against three changes each of 2 liters of 50 mM Tris-HCl, pH 7.4/5 mM DTT/10% glycerol. Except in the final dialysis, all the above buffers contained 50 µg/mL of aprotinin and 2 µg/mL each of pepstatin and leupeptin.
(§2) Secondly, the kinetics of AZT phosphorylation by the two mutants was determined. […] (One unit of enzyme is defined as that amount that can phosphorylate 1.0 pmol of dT to TMP in 1 minute under the conditions described above.) Incubation was at 34°C ± 1°C for 10 minutes, and reactions were stopped by adding 1.0 mM unlabeled dT and cooling on ice. Half of the reaction mixtures were pipetted onto a DEAE-cellulose disc (25 mm), dipped in distilled water (1 minute), followed by four washes in absolute ethanol. The amount of radioactivity adsorbed to the disc was determined by scintillation spectroscopy. […] All other components in the reaction mixtures and the incubation conditions were as described above for phosphorylation of AZT.
(§3) All buffers used in the purification of TK contained 5mM DTT, 50 µ/mL aprotinin, 2 µg/mL each of leupeptin and pepstatin and I mM PMSF unless otherwise indicated. […] TK assay was performed on all the fractions and peak TK - fractions were pooled and dialyzed against three changes of 21 of dialysis buffer (50 mM Tris-HCl, pH 7.4, 5 mM DTT, 10% glycerol). In the final dialysis, protease inhibitors were omitted from the buffer and the dialyzed fractions were aliquoted and stored at -70°C. The column was washed thoroughly twice by using the same washing and elution protocols as described above prior to application of each extract preparation.
(§4) Kinetic parameters were determined essentially as described below. […] Incubation was at 34 ± 1°C for 10 minutes. […] Half of the reaction mix was pipetted onto a DEAE-cellulose disc (25 mm) and the disc was dipped in distilled water (1 minute) followed by four washes each in 10 mL of absolute ethanol. The adsorbed products on the disc were counted in a scintillation counter.

[2] = biological target: HSV-1 thymidine kinase, wild-type (pMCC), SEQ ID 13 (codons 165-175) (Human herpesvirus 1, UniProt P06478); assay type: biochemical, Herpes Simplex Virus Type 1; conditions: Table I; purified enzyme, 34°C, 10 minutes
Experimental: as §1, §2, §3, §4

[3] = test system: E. coli KY895 harboring HSV-1 TK mutant TKF 105 (Leu-170 to Ile); assay: Negative selection on AZT-selection medium; assay type: cell-based; conditions: 0.05 µg/mL of AZT, 1.0 µg/mL of dT
From the text: This screen is based upon the premise that mutants with increased ability to phosphorylate AZT relative to dT would be unable to form colonies on the AZT-selection medium. In particular, the product, AZT monophosphate would be further phosphorylated by the host cell's nonspecific nucleotide kinases, or possibly by the mutant TK, incorporated into bacterial DNA by host DNA polymerases, terminate DNA synthesis, and thus prevent replication of the host chromosome.
Briefly, the TK mutants were first grown as individual colonies on TK-selection medium (1.0 µg/mL of dT), and then replica plated onto AZT-selection medium (0.05 µg/mL of AZT, 1.0 µg/mL of dT). All other components in the AZT-selection medium were the same as the TK-selection medium.

[4] = test system: ts13 BHK tk- cells transfected with pCMV:75 (HSV-1 TK mutant 75); assay: Cell killing by GCV and ACV, Alamar Blue viability (ED50); assay type: cell-based, baby hamster; conditions: Mesocricetus auratus, 96 h; effective dose for 50% cell killing, after 4 days on nucleoside analog, pooled G418 resistant clones
Experimental: (§5) Briefly, the cell transfections are performed as follows. Approximately 5 x 10^5 ts13 BHK tk cells (ATCC CRL-1632) are plated on 100mm dishes in DMEM + 10% calf serum. For each transfection 1 µg of pSV2neo and 10µg of a pCMV construct (pCMV, pCMV:TK-wrong (HSVTK in the wrong orientation relative to the promoter), pCMV:HSVTK, pCMV:30, pCMV:75 or pCMV:132 DNA) in 0.25M CaCl2 are mixed with 0.5ml 2 x BBS (see Chen and Okayama) and preincubated at 37°C at 2.5% CO2 for […]. The CaCl2/DNA mix is added dropwise to the plates and mixed in well. After a 24 hour incubation at 37°C in a 2.5% CO2 wet incubator, the cells are rinsed twice with Dulbecco PBS minus Ca/Mg and fed with fresh DMEM + 10% calf serum. Plates are incubated at 37°C with 6% CO2. After 72 hours post-transfection the cells are split 1:3 and plated in DMEM + 10% calf serum containing G418 at 600µg/ml.
(§6) The cells are selected on G418 (600µg/ml) at 37°C for 17 days. […]. Approximately 30-40 clones are selected in this manner for each transfected DNA containing a tk gene in the correct orientation. The pCMV and pCMV:TK-wrong transfections yielded between 130 and 140 clones each. G418 resistant clones are harvested, pooled and plated at a density of 2000 cells/well in 100µl DMEM + 10% calf serum and 200µg/ml G418 + 6% CO2 in 96 well microtiter plates. […]. After three days in the presence of the nucleoside analog, Alamar Blue is added and 6 hours later the plates are scanned using a fluorometer as according to the manufacturer's protocol (Alamar Biosciences, Inc., Sacramento, CA). The plates are incubated a further 24 hours at 37°C and scanned again.
(§7) Determination of the fluorescence level of cells incubated in the presence of Alamar Blue directly relates to cell viability.

[5] = test system: ts13 BHK tk- cells transfected with pCMV:132 (HSV-1 TK mutant 132); assay: as above; assay type: cell-based, baby hamster; conditions: Mesocricetus auratus, 96 h; effective dose for 50% cell killing, after 4 days on nucleoside analog, pooled G418 resistant clones
Experimental: as §5, §6, §7

[6] = test system: ts13 BHK tk- cells transfected with pCMV:HSVTK (wild-type HSV-1 TK); assay: as above; assay type: cell-based, baby hamster; conditions: Mesocricetus auratus, 96 h; effective dose for 50% cell killing, after 4 days on nucleoside analog, pooled G418 resistant clones
Experimental: as §5, §6, §7

[7] = test system: ts13 BHK tk- cells transfected with pCMV:30 (HSV-1 TK mutant 30); assay: as above; assay type: cell-based, baby hamster; conditions: Mesocricetus auratus, 96 h; effective dose for 50% cell killing, after 4 days on nucleoside analog, pooled G418 resistant clones
Experimental: as §5, §6, §7

HSV-1 thymidine kinase, wild-type (pMCC), SEQ ID 13 (codons 165-175), sequence (P06478 whole entry, looked up): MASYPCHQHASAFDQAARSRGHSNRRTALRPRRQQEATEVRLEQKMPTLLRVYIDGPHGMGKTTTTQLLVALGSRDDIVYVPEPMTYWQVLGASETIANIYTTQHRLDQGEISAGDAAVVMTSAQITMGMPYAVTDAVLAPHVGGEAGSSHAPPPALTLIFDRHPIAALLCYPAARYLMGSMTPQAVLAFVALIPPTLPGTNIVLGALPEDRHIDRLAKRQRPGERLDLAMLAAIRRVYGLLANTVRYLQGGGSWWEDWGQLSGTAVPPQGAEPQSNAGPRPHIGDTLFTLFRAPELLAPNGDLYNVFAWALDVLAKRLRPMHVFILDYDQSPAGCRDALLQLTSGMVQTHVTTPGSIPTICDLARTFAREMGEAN
HSV-1 thymidine kinase mutant TKI 208 (Leu-170 to Val), SEQ ID 23 (codons 165-175), sequence (P06478 whole entry L170V, looked up): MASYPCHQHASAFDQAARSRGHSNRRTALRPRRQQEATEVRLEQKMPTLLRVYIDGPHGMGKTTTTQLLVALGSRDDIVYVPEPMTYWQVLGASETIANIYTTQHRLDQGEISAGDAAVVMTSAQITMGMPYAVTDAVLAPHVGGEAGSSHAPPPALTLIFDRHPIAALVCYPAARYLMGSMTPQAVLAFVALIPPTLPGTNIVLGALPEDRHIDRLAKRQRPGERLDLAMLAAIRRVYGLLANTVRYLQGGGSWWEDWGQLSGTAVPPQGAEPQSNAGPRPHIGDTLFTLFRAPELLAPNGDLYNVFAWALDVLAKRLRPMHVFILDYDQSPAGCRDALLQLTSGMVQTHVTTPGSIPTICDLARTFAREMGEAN

Row | Compound | Km [1] [µM] | kcat [1] [s⁻¹] | Km [2] | kcat [2] [s⁻¹] | colony formation on AZT-selection medium [3] | IC50 [4] [µM] | IC50 [5] [µM] | IC50 [6] [µM] | IC50 [7] [µM]
1 | Cc1cn([C@H]2C[C@H](N=[N+]=[N-])[C@@H](CO)O2)c(=O)[nH]c1=O [AZT, 3' azido-3' thymidine] | 4.4 | 0.03 | 8.5 µM and 8.46 µM | 0.036 | not on the AZT-selection medium |  |  |  | 
2 | Nc1nc2c(ncn2COCCO)c(=O)[nH]1 [acyclovir] |  |  |  |  |  | 1.25 | 25 | 25 | 18
